Laboratory results taken from PubChem BioAssay (NCI).
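Following 48 hours of exposure in 96-well plates, responses at five concentrations were used to interpolate endpoints linearly. Definition used: TGI = concentration required for complete inhibition of growth.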

Experiments:
Assay in all cases: NCI tumour cell line growth inhibition, 48 h
COLO 205 colon = system: COLO 205 colon
CAKI-1 renal = system: CAKI-1 renal
A549 NSCLC = system: A549 NSCLC
HCT-116 colon = system: HCT-116 colon
OVCAR-4 ovarian = system: OVCAR-4 ovarian
CCRF-CEM leukemia = system: CCRF-CEM leukemia
U251 CNS = system: U251 CNS
SF-268 CNS = system: SF-268 CNS
HCC-2998 colon = system: HCC-2998 colon
RXF 393 renal = system: RXF 393 renal
HOP-62 NSCLC = system: HOP-62 NSCLC
HOP-18 NSCLC = system: HOP-18 NSCLC
KM12 colon = system: KM12 colon
SK-OV-3 ovarian = system: SK-OV-3 ovarian
KM20L2 colon = system: KM20L2 colon
MOLT-4 leukemia = system: MOLT-4 leukemia
SNB-19 CNS = system: SNB-19 CNS
IGROV1 ovarian = system: IGROV1 ovarian
EKVX NSCLC = system: EKVX NSCLC
SW-620 colon = system: SW-620 colon
DLD-1 colon = system: DLD-1 colon
SK-MEL-2 melanoma = system: SK-MEL-2 melanoma
K-562 leukemia = system: K-562 leukemia
P388/ADR leukemia = system: P388/ADR leukemia
HCT-15 colon = system: HCT-15 colon
UACC-62 melanoma = system: UACC-62 melanoma
OVCAR-3 ovarian = system: OVCAR-3 ovarian
RPMI-8226 leukemia = system: RPMI-8226 leukemia
DMS 273 small cell lung = system: DMS 273 small cell lung
SNB-75 CNS = system: SNB-75 CNS
HOP-92 NSCLC = system: HOP-92 NSCLC
NCI-H23 lung = system: NCI-H23 lung
SK-MEL-28 melanoma = system: SK-MEL-28 melanoma
P388 leukemia = system: P388 leukemia
LOX IMVI melanoma = system: LOX IMVI melanoma
SF-539 CNS = system: SF-539 CNS
SK-MEL-5 melanoma = system: SK-MEL-5 melanoma
HT29 colon = system: HT29 colon
OVCAR-5 ovarian = system: OVCAR-5 ovarian
DMS 114 small cell lung = system: DMS 114 small cell lung
M19-MEL melanoma = system: M19-MEL melanoma
MALME-3M melanoma = system: MALME-3M melanoma
MCF7 breast = system: MCF7 breast
NCI/ADR-RES ovarian = system: NCI/ADR-RES ovarian
NCI-H226 lung = system: NCI-H226 lung
HL-60(TB) leukemia = system: HL-60(TB) leukemia
SNB-78 CNS = system: SNB-78 CNS
UO-31 renal = system: UO-31 renal
SN12K1 renal = system: SN12K1 renal
UACC-257 melanoma = system: UACC-257 melanoma
NCI-H522 lung = system: NCI-H522 lung
SF-295 CNS = system: SF-295 CNS
XF 498 CNS = system: XF 498 CNS
OVCAR-8 ovarian = system: OVCAR-8 ovarian
A498 renal = system: A498 renal
NCI-H460 lung = system: NCI-H460 lung
SN12C renal = system: SN12C renal
786-0 renal = system: 786-0 renal
RXF-631 renal = system: RXF-631 renal
M14 melanoma = system: M14 melanoma
TK-10 renal = system: TK-10 renal
ACHN renal = system: ACHN renal
LXFL 529 NSCLC = system: LXFL 529 NSCLC
SR leukemia = system: SR leukemia

O=C1CCCN1CCCN=c1cc2n(-c3ccc(Cl)cc3)c3ccccc3nc-2cc1Nc1ccc(Cl)cc1
TGI (COLO 205 colon): 2.83 µM | TGI (CAKI-1 renal): > 100 µM | TGI (A549 NSCLC): 35.3 µM | TGI (HCT-116 colon): 25.3 µM | TGI (OVCAR-4 ovarian): 21.8 µM | TGI (CCRF-CEM leukemia): 50.3 µM | TGI (U251 CNS): 54.2 µM | TGI (SF-268 CNS): > 100 µM | TGI (HCC-2998 colon): 18.1 µM | TGI (RXF 393 renal): 11.3 µM | TGI (HOP-62 NSCLC): 29.5 µM | TGI (HOP-18 NSCLC): > 92.4 µM | TGI (KM12 colon): 28.7 µM | TGI (SK-OV-3 ovarian): 80.7 µM | TGI (KM20L2 colon): 11 µM | TGI (MOLT-4 leukemia): 27 µM | TGI (SNB-19 CNS): 98.8 µM | TGI (IGROV1 ovarian): 24.9 µM | TGI (EKVX NSCLC): 28.1 µM | TGI (SW-620 colon): 68.5 µM | TGI (DLD-1 colon): 28.3 µM | TGI (SK-MEL-2 melanoma): 30.7 µM | TGI (K-562 leukemia): 30 µM | TGI (P388/ADR leukemia): 15.4 µM | TGI (HCT-15 colon): 20 µM | TGI (UACC-62 melanoma): 26.2 µM | TGI (OVCAR-3 ovarian): 6.18 µM | TGI (RPMI-8226 leukemia): 28.1 µM | TGI (DMS 273 small cell lung): 43.6 µM | TGI (SNB-75 CNS): 97.5 µM | TGI (HOP-92 NSCLC): 40.6 µM | TGI (NCI-H23 lung): 25.1 µM | TGI (SK-MEL-28 melanoma): 47.5 µM | TGI (P388 leukemia): 13 µM | TGI (LOX IMVI melanoma): 28.2 µM | TGI (SF-539 CNS): 28.2 µM | TGI (SK-MEL-5 melanoma): 19 µM | TGI (HT29 colon): 13 µM | TGI (OVCAR-5 ovarian): 37.3 µM | TGI (DMS 114 small cell lung): 20.2 µM | TGI (M19-MEL melanoma): 5.45 µM | TGI (MALME-3M melanoma): 38.3 µM | TGI (MCF7 breast): 25.8 µM | TGI (NCI/ADR-RES ovarian): 42.1 µM | TGI (NCI-H226 lung): 32.3 µM | TGI (HL-60(TB) leukemia): 15.8 µM | TGI (SNB-78 CNS): 75.2 µM | TGI (UO-31 renal): 51.3 µM | TGI (SN12K1 renal): 23.3 µM | TGI (UACC-257 melanoma): 24.7 µM | TGI (NCI-H522 lung): 16.6 µM | TGI (SF-295 CNS): 40.7 µM | TGI (XF 498 CNS): 35.3 µM | TGI (OVCAR-8 ovarian): 53.2 µM | TGI (A498 renal): 43.2 µM | TGI (NCI-H460 lung): 22.1 µM | TGI (SN12C renal): 43.4 µM

CCN(CC)CCC(=O)/C=C/c1ccc(C)cc1
TGI (COLO 205 colon): 16.8 µM | TGI (CAKI-1 renal): 3.28 µM | TGI (A549 NSCLC): 34.5 µM | TGI (HCT-116 colon): 26.2 µM | TGI (OVCAR-4 ovarian): 32.7 µM | TGI (786-0 renal): 24.7 µM | TGI (CCRF-CEM leukemia): 56.1 µM | TGI (U251 CNS): 22.3 µM | TGI (SF-268 CNS): 30.4 µM | TGI (RXF-631 renal): 35.1 µM | TGI (HCC-2998 colon): 32.6 µM | TGI (RXF 393 renal): 29.2 µM | TGI (M14 melanoma): 26.8 µM | TGI (HOP-62 NSCLC): 71.1 µM | TGI (HOP-18 NSCLC): 31.5 µM | TGI (KM12 colon): 7.98 µM | TGI (SK-OV-3 ovarian): 35.1 µM | TGI (KM20L2 colon): 30 µM | TGI (MOLT-4 leukemia): 38.2 µM | TGI (SNB-19 CNS): 37.5 µM | TGI (IGROV1 ovarian): 30 µM | TGI (EKVX NSCLC): 32.4 µM | TGI (SW-620 colon): 14.9 µM | TGI (DLD-1 colon): 21.9 µM | TGI (K-562 leukemia): > 100 µM | TGI (TK-10 renal): 19.3 µM | TGI (HCT-15 colon): 36.3 µM | TGI (ACHN renal): 27.5 µM | TGI (UACC-62 melanoma): 30.9 µM | TGI (OVCAR-3 ovarian): 31.1 µM | TGI (RPMI-8226 leukemia): > 100 µM | TGI (DMS 273 small cell lung): 25.5 µM | TGI (SNB-75 CNS): 30.9 µM | TGI (HOP-92 NSCLC): 35.4 µM | TGI (NCI-H23 lung): 32.4 µM | TGI (SK-MEL-28 melanoma): 28.1 µM | TGI (LOX IMVI melanoma): 14.6 µM | TGI (SF-539 CNS): 19.1 µM | TGI (SK-MEL-5 melanoma): 30.2 µM | TGI (HT29 colon): 33 µM | TGI (OVCAR-5 ovarian): 32.6 µM | TGI (DMS 114 small cell lung): 24.4 µM | TGI (M19-MEL melanoma): 25.4 µM | TGI (MALME-3M melanoma): 34 µM | TGI (LXFL 529 NSCLC): 20.6 µM | TGI (NCI-H226 lung): 31.9 µM | TGI (HL-60(TB) leukemia): 33.6 µM | TGI (SNB-78 CNS): 79.3 µM | TGI (SR leukemia): 33.3 µM | TGI (UO-31 renal): 29.8 µM | TGI (UACC-257 melanoma): 30.6 µM | TGI (SF-295 CNS): 34.6 µM | TGI (XF 498 CNS): 25.1 µM | TGI (OVCAR-8 ovarian): 32.4 µM | TGI (A498 renal): 24 µM | TGI (NCI-H460 lung): 38.3 µM | TGI (SN12C renal): 24.8 µM
